For data set [1], the system named is COX I. Briefly: PGE2 production in freshly isolated human monocytes. The note with it: EIA, cells may be expressing COX II constitutively, read-out: COX I IC50, inhibition of PGE2 production. The data set is classed as cell-based. How it is done: (§1) A summary of activities of Compound (16) against COX I and COX II in cell-free enzyme preparations and whole cells is presented in Table 1. The following abbreviations are used: AA is arachidonic acid, IL-1 is interleukin 1, PMA is phorbol myristate acetate, A23187 is a calcium ionophore (Sigma), BSA is bovine serum albumin and LPS is a lipopolysaccharide (Sigma).
Human monocytes 30 min incubation with Compound (16)
freshly isolated a) 10 min activation, A23187 + PMA
These cells may be expressing COX II
(§2) b) 30 min activation, A23187 + PMA
constitutively c) 10 min activation, 20 μM AA
(§3) d) 30 min activation, 20 μM AA
(§4) EIA determination of PGE2

For the next data set, the target named is T1, COX II (Homo sapiens, UniProt P35354).
T1 sequence (P35354 18-604): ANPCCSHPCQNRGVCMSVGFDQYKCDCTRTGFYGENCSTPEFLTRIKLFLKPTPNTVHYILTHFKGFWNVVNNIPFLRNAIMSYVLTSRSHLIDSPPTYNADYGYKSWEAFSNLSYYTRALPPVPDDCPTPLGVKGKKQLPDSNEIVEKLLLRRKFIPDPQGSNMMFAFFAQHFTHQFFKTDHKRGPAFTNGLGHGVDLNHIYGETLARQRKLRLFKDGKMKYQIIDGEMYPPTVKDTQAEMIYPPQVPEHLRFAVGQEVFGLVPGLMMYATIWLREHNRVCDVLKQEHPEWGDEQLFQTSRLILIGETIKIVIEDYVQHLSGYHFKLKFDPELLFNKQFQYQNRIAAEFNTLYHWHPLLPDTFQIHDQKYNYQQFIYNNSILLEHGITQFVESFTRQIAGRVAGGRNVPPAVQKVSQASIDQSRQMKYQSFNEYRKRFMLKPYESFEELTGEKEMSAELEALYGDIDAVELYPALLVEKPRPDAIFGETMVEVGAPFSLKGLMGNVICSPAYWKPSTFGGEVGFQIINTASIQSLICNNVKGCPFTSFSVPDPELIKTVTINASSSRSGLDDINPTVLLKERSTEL
Briefly: PGE2 production in human adherent monocytes stimulated with LPS. In kind it is cell-based. The note with it: EIA, read-out: COX II IC50, inhibition of PGE2 production. How it is done:
as §1
Human adherent monocytes
(§5) 30 min incubation with Compound (16)
18 hr stimulation with LPS
a) 10 min activation, A23187 + PMA
washing, transfer to fresh media
as §2
c) 10 min activation, 20 μM AA
as §3, §4

Data set [2] has as its system adjuvant-induced arthritis pain. The experiment in a line: adjuvant-induced arthritis pain model in the rat. In kind it is in vivo. The note with it: preliminary test at 0.1, 1.0, 10 and 30 mg/kg, read-out: doses at which significant and prolonged analgesia is obtained. On the procedure:
Compound (16) was also evaluated using an adjuvant-induced arthritis pain model in the rat, in which pain is assessed by eliciting a vocal response upon squeezing or flexing an inflamed ankle joint.

Data set [3] can be described thus: two week range finding toxicity study in cynomolgus monkeys. In kind it is in vivo, cynomolgus monkey. The note with it: 10, 30, 100 and 300 mg/kg daily, two weeks. How it is done:
A two week range finding study in cynomolgus monkeys was carried out at daily doses of 10, 30, 100 and 300 mg/kg of Compound (16).

Data set [4] has as its target T2, COX I (Homo sapiens, UniProt P23219). Briefly: TxB2 production in human whole blood activated with ionophore (COX I). The note with it: COX I IC50, inhibition of TxB2 production.
Data set [5] deals with T2, COX I. The experiment in a line: radiometric assay, COX I inhibition (human recombinant, baculovirus expressed, partially purified). The data set is classed as biochemical. Set-up: A 2 Kb fragment containing the coding region of COX I; made in house; host or cells: Sf9 insect cells, baculovirus (cDNA from Oxford Biomedical Research). The note with it: 10 min incubation with compound; 45 sec incubation with 20 μM AA; separation of radioactive products; read-out: COX I IC50. The procedure, abridged:
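Partially purified baculovirus-expressed human enzyme preincubated with compound, 2 mM phenol (5 min) then 1 μM hematin (5 min). Reaction in Tris-HCl pH 7.9 with 20 μM 1-[14C]arachidonate for 45 s at room temperature, acid-stopped; oxygenated products isolated on Sep-Pak and counted by scintillation.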

Data set [6] deals with T2, COX I. The experiment in a line: thromboxane B2 production in washed human platelets. The note with it: EIA, read-out: COX I IC50, inhibition of thromboxane B2 production. Set-up: A 2 Kb fragment containing the coding region of COX I; made in house; host or cells: Sf9 insect cells, baculovirus (cDNA from Oxford Biomedical Research). In kind it is cell-based. How it is done:
as §1, §5
b) 10 min activation, 20 μM AA
EIA determination of TxB2

Setting [7] is: 30 min incubation; a) 10 min activation, A23187 + PMA.
[8] abbreviates: 30 min incubation; b) 30 min activation, A23187 + PMA.
[9] abbreviates: 30 min incubation; c) 10 min activation, 20 μM AA.
The mark [10] stands for this setting: 30 min incubation; d) 30 min activation, 20 μM AA.

Each structure is given as a SMILES string. Like-named read-outs stand apart in the source and are kept apart here.

Usually IC50 stands for the concentration that inhibits the measured activity by half.

T2 sequence (P23219 24-599): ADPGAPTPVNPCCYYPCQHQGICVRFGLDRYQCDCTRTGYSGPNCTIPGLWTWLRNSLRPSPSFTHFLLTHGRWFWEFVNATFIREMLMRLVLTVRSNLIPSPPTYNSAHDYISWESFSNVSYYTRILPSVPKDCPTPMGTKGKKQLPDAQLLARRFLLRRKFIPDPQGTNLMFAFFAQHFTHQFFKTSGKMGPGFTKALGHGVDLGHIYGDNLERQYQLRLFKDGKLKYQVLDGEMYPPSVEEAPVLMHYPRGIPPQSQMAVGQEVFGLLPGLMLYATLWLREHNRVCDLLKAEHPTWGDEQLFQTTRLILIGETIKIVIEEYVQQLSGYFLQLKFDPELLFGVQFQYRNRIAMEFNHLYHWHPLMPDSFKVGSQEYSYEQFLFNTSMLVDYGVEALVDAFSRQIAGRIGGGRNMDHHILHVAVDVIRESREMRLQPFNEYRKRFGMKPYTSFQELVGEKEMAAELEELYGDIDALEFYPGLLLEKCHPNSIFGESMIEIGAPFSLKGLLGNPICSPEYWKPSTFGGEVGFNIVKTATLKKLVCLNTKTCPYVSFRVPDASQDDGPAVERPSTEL

Regarding `Cc1cc(Cc2ccc(=O)[nH]n2)n(C)c1C(=O)c1ccc(Cl)cc1` [Compound 16, 6-[1,4-dimethyl-5-(4chloro-benzoyl)-1H-pyrrol-2-ylmethyl]-2H-pyridazin-3-one], the IC50 with COX I [1] (setting [7]) is 5.2 µM; in the data set on COX I [1] (setting [8]), 0.31 µM; in the data set with COX I [1] (setting [9]), 4.6 µM; in the data set with COX I [1] (setting [10]) it was more than 10 µM; at COX II (setting [7]), 0.2 µM; at COX II (setting [8]) it was less than 0.1 µM. Besides, the IC50 at COX II (setting [9]) is 2.8 µM; on COX II (setting [10]), 0.54 µM; at COX I [4] (15 min incubation with compound, 30 min with A23187 (ionophore), RIA determination of TxB2) it was 5.6 µM; on COX I [4] (30 min incubation, 15 min activation, A23187, EIA determination of TxB2), 3 µM; at COX I [5] it was more than 1000 µM; on COX I [6] (30 min incubation; a) 10 min activation, A23187 (calcium ionophore)), 2.3 µM. Also, the half-maximal inhibitory concentration (IC50) on COX I [6] (30 min incubation; b) 10 min activation, 20 μM AA) is more than 100 µM. For the same compound, in data set [2], the minimal effective dose is not below 10 mg/kg. Also, in data set [3], the “clinical signs, clinical chemistry, gross pathology or histopathology” value is listed as “No abnormalities were observed”.

Source of the values: patent US5622948A, “Pyrrole pyridazine and pyridazinone anti-inflammatory agents” (Syntex (U.S.A.) Inc., priority 1994, dated 1997).
